Assays:
BRD4 = target: T1, BRD4 (Homo sapiens, UniProt O60885); experiment: BRD4 degradation in HeLa cells by Western blot; type: cell-based
T1 construct: HeLa cells, which express BRD4 at high levels, were selected as a model cell line; host or cells: HeLa
Description: 80-O14B LNP was formulated by directly dissolving the lipidoid into 25 mM sodium acetate solution (pH=5.5). 80-O14B LNP was added into the solution with the final concentration of 5 μg/mL and the solution was incubated at room temperature for another 15 min before administration. Pre-fused ARV-825 or SARD279 were prepared through the similar route.
Generally, Western blots was carried out on the Invitrogen Novex SureLock Mini-Cell system. Supplies for the system were bought from Invitrogen (Carlsbad, CA, USA) […] sample was loaded onto 4-12% bis-tris protein gel and the gel was run with a stable voltage of 120 V for 80 min. Then the gel was cut according to the protein ladder and transferred to PVDF membrane with a stable current of 250 mA for 3 h. The membrane was blocked by 5% skimmed milk for 1 h at room temperature and then incubated with primary antibody overnight. After 3 cycles of washing by TBST (tris-buffered saline, 0.1% tween 20), the membrane was incubated with secondary antibody for another 1 h and then washed by TBST for 3 times. The final membrane was then imaged using enhanced chemiluminescence (ECL) substrate.
1×10^6 HeLa cells were cultured in 6 well plate for 24 h before administration. […] After 24 h incubation, the proteins were isolated from HeLa cells using the radio-immunoprecipitation assay (RIPA) lysis buffer and quantitated by bicinchoninic acid assay (BCA assay). Then the proteins were diluted to the sample concentration using NuPAGE LDS sample buffer (Invitrogen, Carlsbad, CA, USA) and denatured at 95° C. for 5 min. The study of targeted protein degradation by ARV-825 and SARD279 were carried out using similar protocols.

androgen receptor (AR) = target: T2, androgen receptor (AR) (Homo sapiens, UniProt P10275, T878A); experiment: AR degradation in LNCaP cells by Western blot; type: cell-based; settings: 0.125 to 0.5 μM
T2 construct: The study of targeted protein degradation by ARV-825 and SARD279 were carried out using similar protocols; host or cells: LNCaP
T2 sequence (P10275 1-920 T878A): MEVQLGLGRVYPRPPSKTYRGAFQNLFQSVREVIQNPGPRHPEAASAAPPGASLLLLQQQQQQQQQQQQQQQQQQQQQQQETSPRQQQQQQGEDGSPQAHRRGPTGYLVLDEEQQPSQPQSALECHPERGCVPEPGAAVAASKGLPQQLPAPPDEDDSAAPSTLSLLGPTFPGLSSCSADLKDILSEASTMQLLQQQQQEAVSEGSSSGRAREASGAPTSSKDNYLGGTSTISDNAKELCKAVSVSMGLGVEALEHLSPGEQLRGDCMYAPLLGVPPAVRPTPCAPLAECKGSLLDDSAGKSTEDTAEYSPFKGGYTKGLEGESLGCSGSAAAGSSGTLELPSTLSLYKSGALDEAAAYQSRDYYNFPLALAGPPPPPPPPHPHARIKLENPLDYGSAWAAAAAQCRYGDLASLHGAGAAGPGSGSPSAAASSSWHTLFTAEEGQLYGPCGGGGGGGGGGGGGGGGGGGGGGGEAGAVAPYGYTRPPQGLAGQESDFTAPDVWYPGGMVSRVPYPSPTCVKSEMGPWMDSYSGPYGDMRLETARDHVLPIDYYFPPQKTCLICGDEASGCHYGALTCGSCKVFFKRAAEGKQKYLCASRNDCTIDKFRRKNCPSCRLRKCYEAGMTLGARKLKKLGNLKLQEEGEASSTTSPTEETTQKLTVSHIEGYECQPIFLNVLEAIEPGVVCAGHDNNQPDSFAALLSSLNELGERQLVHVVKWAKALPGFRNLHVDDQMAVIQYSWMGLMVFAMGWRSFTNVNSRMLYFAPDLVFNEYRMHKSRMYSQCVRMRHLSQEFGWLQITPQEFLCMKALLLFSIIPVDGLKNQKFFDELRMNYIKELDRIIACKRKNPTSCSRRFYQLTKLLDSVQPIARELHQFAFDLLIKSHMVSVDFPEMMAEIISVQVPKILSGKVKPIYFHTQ

| Compound | BRD4 levels remained (BRD4; 24 h, 25 and 50 nM) | BRD4 degradation, time-dependent (BRD4; after 8 h) | BRD4 degradation, time-dependent (BRD4; after 24 h) | BRD4 degradation, time-dependent (BRD4; first 6 h) | AR degradation (androgen receptor (AR)) |
| --- | --- | --- | --- | --- | --- |
| Cc1ncsc1-c1ccc([C@H](C)NC(=O)[C@@H]2C[C@@H](O)CN2C(=O)[C@@H](NC(=O)COCCCOCCNC(=O)C[C@@H]2N=C(c3ccc(Cl)cc3)c3c(sc(C)c3C)-n3c(C)nnc32)C(C)(C)C)cc1 [ARV-771] | more than 80% | Small amounts of degradation | total degradation | no significant degradation | – |
| CC1(C)C(=O)N(c2ccc(C#N)c(C(F)(F)F)c2)C(=S)N1CCCC(=O)NCCOCCOC(=O)CC12CC3CC(CC(C3)C1)C2 [SARD279] | – | – | – | – | no AR degradation |
